The target of the experiment is T1, HIV integrase (Human immunodeficiency virus type 1 group M subtype B, UniProt P12497, F1332H).
T1 construct: HIV integrase full length gene; made in house; host or cells: Escherichia coli BL21(DE3), plasmid pET21a-INH
Put plainly: Determination of enzyme (HIV integrase) inhibitory activity. Type of experiment: biochemical. Conditions: recombinant HIV integrase (F185H), strand transfer ELISA, absorbance at 450 nm. The gist of the method: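 Full-length integrase with F185H, expressed in E. coli and purified, was reacted for 60 min at 37 °C with compound and biotinylated donor DNA bound to streptavidin plates. Target DNA was added for 10 min, then anti-digoxigenin-peroxidase detection at A450; IC50 from % inhibition versus enzyme-free blank.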

Results on 33 molecules are retold here after patent US7211572B2 (Japan Tobacco Inc., priority 2003, dated 2007).

Structures can show the parent of a compound that is named as a salt. Some results are limits rather than exact numbers.

As a reminder, the IC50 is the midpoint of a concentration-inhibition curve. As for `O=C(Nc1cn2ccn(Cc3cccc(Cl)c3)c(=O)c2c(O)c1=O)C1CCCC1` [Example 274, N-[2-(3-chlorobenzyl)-9-hydroxy-1,8-dioxo-1,8-dihydro-2H-pyrido[1,2-a]pyrazin-7-yl)cyclopentanecarboxamide], the half-maximal inhibitory concentration (IC50) lay within 10 to 100 nM.
Take `O=C(Cc1ccc(F)cc1)Nc1cn2ccn(Cc3cccc(Cl)c3)c(=O)c2c(O)c1=O` [Example 275, N-[2-(3-chlorobenzyl)-9-hydroxy-1,8-dioxo-1,8-dihydro-2H-pyrido[1,2-a]pyrazin-7-yl]-2-(4-fluorophenyl)acetamide]: the IC50 was under 10 nM.
In the case of `CC(C)(C)C(=O)Nc1cn2ccn(Cc3cccc(Cl)c3)c(=O)c2c(O)c1=O` [Example 276, N-[2-(3-chlorobenzyl)-9-hydroxy-1,8-dioxo-1,8-dihydro-2H-pyrido[1,2-a]pyrazin-7-yl]-2,2-dimethylpropionamide], the IC50 is under 10 nM.
The figure for `CC(C)(C(=O)Nc1cn2ccn(Cc3cccc(Cl)c3)c(=O)c2c(O)c1=O)c1ccccc1` [Example 277, N-[2-(3-chlorobenzyl)-9-hydroxy-1,8-dioxo-1,8-dihydro-2H-pyrido[1,2-a]pyrazin-7-yl]-2-phenylisobutyramide] is under 10 nM.
With `O=C(Nc1cn2ccn(Cc3cccc(Cl)c3)c(=O)c2c(O)c1=O)c1ccc(F)cc1` [Example 278, N-[2-(3-chlorobenzyl)-9-hydroxy-1,8-dioxo-1,8-dihydro-2H-pyrido[1,2-a]pyrazin-7-yl]-4-fluorobenzamide], the IC50 was under 10 nM.
Consider `O=C(Nc1cn2ccn(Cc3cccc(Cl)c3)c(=O)c2c(O)c1=O)c1ccccn1` [Example 279, N-[2-(3-chlorobenzyl)-9-hydroxy-1,8-dioxo-1,8-dihydro-2H-pyrido[1,2-a]pyrazin-7-yl]pyridine-2-carboxamide trifluoroacetate], for which the IC50 was under 10 nM.
Turning to `CC(C)Nc1cn2ccn(Cc3cccc(Cl)c3)c(=O)c2c(O)c1=O` [Example 280, 2-(3-chlorobenzyl)-9-hydroxy-7-isopropylamino-2H-pyrido [1,2-a]pyrazine-1,8-dione hydrochloride], the half-maximal inhibitory concentration (IC50) was in the range of 10 to 100 nM.
In the case of `CCN(CC)c1cn2ccn(Cc3cccc(Cl)c3)c(=O)c2c(O)c1=O` [Example 281, 2-(3-chlorobenzyl)-7-diethylamino-9-hydroxy-2H-pyrido[1,2-a]pyrazine-1,8-dione hydrochloride], the half-maximal inhibitory concentration (IC50) was 10 to 100 nM.
On to `O=C1c2c(O)c(=O)c(-c3ccccn3)cn2CCN1Cc1cccc(Cl)c1` [Example 282, 2-(3-chlorobenzyl)-9-hydroxy-7-(pyridin-2-yl)-3,4-dihydro-2H-pyrido[1,2-a]pyrazine-1,8-dione hydrochloride], for which the IC50 was under 10 nM.
Consider `CC(C)CNc1cn2ccn(Cc3cccc(Cl)c3)c(=O)c2c(O)c1=O` [Example 283, 2-(3-chlorobenzyl)-9-hydroxy-7-isobutylamino-2H-pyrido[1,2-a]pyrazine-1,8-dione hydrochloride], for which the IC50 was 10 to 100 nM.
The figure for `CC(C)C(C(=O)Nc1cn2ccn(Cc3cccc(Cl)c3)c(=O)c2c(O)c1=O)C(C)C` [Example 284, N-[2-(3-chlorobenzyl)-9-hydroxy-1,8-dioxo-1,8-dihydro-2H-pyrido[1,2-a]pyrazin-7-yl] -2-isopropyl-3-methylbutyramide] is 10 to 100 nM.
On to `CCNc1cn2ccn(Cc3cccc(Cl)c3)c(=O)c2c(O)c1=O` [Example 285, 2-(3-chlorobenzyl)-7-ethylamino-9-hydroxy-2H-pyrido[1,2-a]pyrazine-1,8-dione hydrochloride], for which the IC50 fell in the range of 10 to 100 nM.
With `O=C(Nc1cn2ccn(Cc3cccc(Cl)c3)c(=O)c2c(O)c1=O)c1cccnc1` [Example 286, N-[2-(3-chlorobenzyl)-9-hydroxy-1,8-dioxo-1,8-dihydro-2H-pyrido[1,2-a]pyrazin-7-yl]nicotinamide trifluoroacetate], the IC50 was under 10 nM.
On to `O=C(Nc1cn2ccn(Cc3cccc(Cl)c3)c(=O)c2c(O)c1=O)c1ccncc1` [Example 287, N-[2-(3-chlorobenzyl)-9-hydroxy-1,8-dioxo-1,8-dihydro-2H-pyrido[1,2-a]pyrazin-7-yl]isonicotinamide trifluoroacetate], for which the IC50 is under 10 nM.
As for `O=C(Nc1cn2ccn(Cc3cccc(Cl)c3)c(=O)c2c(O)c1=O)c1ccco1` [Example 288, N-[2-(3-chlorobenzyl)-9-hydroxy-1,8-dioxo-1,8-dihydro-2H-pyrido[1,2-a]pyrazin-7-yl]furan-2-carboxamide], the IC50 is under 10 nM.
Take `O=C(Nc1cn2ccn(Cc3cccc(Cl)c3)c(=O)c2c(O)c1=O)c1cccs1` [Example 289, N-[2-(3-chlorobenzyl)-9-hydroxy-1,8-dioxo-1,8-dihydro-2H-pyrido[1,2-a]pyrazin-7-yl]thiophene-2-carboxamide]: the IC50 is under 10 nM.
On to `O=C1c2c(O)c(=O)c(-c3cccnn3)cn2CCN1Cc1cccc(Cl)c1` [Example 290, 2-(3-chlorobenzyl)-9-hydroxy-7-(pyridazin-3-yl)-3,4-dihydro-2H-pyrido[1,2-a]pyrazine-1,8-dione hydrochloride], for which the concentration for half-maximal inhibition (IC50) was 10 to 100 nM.
As for `O=C1c2c(O)c(=O)c(-c3nccs3)cn2CCN1Cc1ccc(F)c(F)c1` [Example 291, 2-(3,4-difluorobenzyl)-9-hydroxy-7-(thiazol-2-yl)-3,4-dihydro-2H-pyrido[1,2-a]pyrazine-1,8-dione], the 50% inhibitory concentration (IC50) was 10 to 100 nM.
Turning to `O=C1c2c(O)c(=O)c(-c3nccs3)cn2CCN1Cc1cccc(Cl)c1F` [Example 292, 2-(3-chloro-2-fluorobenzyl)-9-hydroxy-7-(thiazol-2-yl)-3,4-dihydro-2H-pyrido[1,2-a]pyrazine-1,8-dione], the 50% inhibitory concentration (IC50) was under 10 nM.
In the case of `O=C1c2c(O)c(=O)c(-c3nccs3)cn2CCN1Cc1ccc(Cl)cc1` [Example 293, 2-(4-chlorobenzyl)-9-hydroxy-7-(thiazol-2-yl)-3,4-dihydro-2H-pyrido[1,2-a]pyrazine-1,8-dione], the IC50 was in the range of 10 to 100 nM.
As to `O=C1c2c(O)c(=O)c(-c3nccs3)cn2CCN1Cc1ccc(Cl)c(F)c1` [Example 294, 2-(4-chloro-3-fluorobenzyl)-9-hydroxy-7-(thiazol-2-yl)-3,4-dihydro-2H-pyrido[1,2-a]pyrazine-1,8-dione], the IC50 was under 10 nM.
In the case of `COc1cc(Cl)ccc1CN1CCn2cc(-c3nccs3)c(=O)c(O)c2C1=O` [Example 295, 2-(4-chloro-2-methoxybenzyl)-9-hydroxy-7-(thiazol-2-yl)-3,4-dihydro-2H-pyrido[1,2-a]pyrazine-1,8-dione] it was 10 to 100 nM; in that of `Cn1cccc1C(=O)Nc1cn2ccn(Cc3cccc(Cl)c3)c(=O)c2c(O)c1=O` [Example 296, N-[2-(3-chlorobenzyl)-9-hydroxy-1,8-dioxo-1,8-dihydro-2H-pyrido[1,2-a]pyrazin-7-yl]-1-methyl-1H-pyrrole-2-carboxamide], under 10 nM.
Turning to `O=C1c2c(O)c(=O)c(-c3nccs3)cn2CCN1CCCc1ccc(Cl)cc1` [Example 297, 2-[3-(4-chlorophenyl)propyl]-9-hydroxy-7-(thiazol-2-yl)-3,4-dihydro-2H-pyrido[1,2-a]pyrazine-1,8-dione hydrochloride], the IC50 fell in the range of 10 to 100 nM.
On to `O=C1c2c(O)c(=O)c(-c3nccs3)cn2CCN1CCCc1ccccc1Cl` [Example 298, 2-[3-(2-chlorophenyl)propyl]-9-hydroxy-7-(thiazol-2-yl)-3,4-dihydro-2H-pyrido[1,2-a]pyrazine-1,8-dione hydrochloride], for which the IC50 was under 10 nM.
Turning to `O=C1c2c(O)c(=O)c(-c3nccs3)cn2CCN1CCCc1cccc(Cl)c1` [Example 299, 2-[3-(3-chlorophenyl)propyl]-9-hydroxy-7-(thiazol-2-yl)-3,4-dihydro-2H-pyrido[1,2-a]pyrazine-1,8-dione hydrochloride], the IC50 was 10 to 100 nM.
On to `Cc1nsc(-c2cn3c(c(O)c2=O)C(=O)N(Cc2cccc(Cl)c2)CC3)n1` [Example 300, 2-(3-chlorobenzyl)-9-hydroxy-7-(3-methyl-1,2,4-thiadiazol-5-yl)-3,4-dihydro-2H-pyrido[1,2-a]pyrazine-1,8-dione hydrochloride], for which the IC50 was in the range of 10 to 100 nM.
For the molecule `CNC(=O)c1cc(F)ccc1CN1CCn2cc(-c3nccs3)c(=O)c(O)c2C1=O` [Example 301, 5-fluoro-2-[9-hydroxy-1,8-dioxo-7-(thiazol-2-yl)-1,3,4,8-tetrahydro-pyrido[1,2-a]pyrazin-2-ylmethyl]-N-methylbenzamide], the half-inhibitory concentration (IC50) was in the range of 100 to 1000 nM.
In the case of `CC(=O)N(CC(C)C)c1cn2ccn(Cc3cccc(Cl)c3)c(=O)c2c(O)c1=O` [Example 302, N-[2-(3-chlorobenzyl)-9-hydroxy-1,8-dioxo-1,8-dihydro-2H-pyrido[1,2-a]pyrazin-7-yl]-N-isobutylacetamide], the IC50 fell in the range of 10 to 100 nM.
The figure for `CC(=O)Nc1cn2ccn(Cc3ccc(F)cc3)c(=O)c2c(O)c1=O` [Example 303, N-[2-(4-fluorobenzyl)-9-hydroxy-1,8-dioxo-1,8-dihydro-2H-pyrido[1,2-a]pyrazin-7-yl]acetamide] is 10 to 100 nM; for `O=C(Nc1cn2ccn(Cc3ccc(F)cc3)c(=O)c2c(O)c1=O)c1ccccc1` [Example 304, N-[2-(4-fluorobenzyl)-9-hydroxy-1,8-dioxo-1,8-dihydro-2H-pyrido[1,2-a]pyrazin-7-yl]benzamide] it is under 10 nM; for `CS(=O)(=O)Nc1cn2ccn(Cc3ccc(F)cc3)c(=O)c2c(O)c1=O` [Example 305, N-[2-(4-fluorobenzyl)-9-hydroxy-1,8-dioxo-1,8-dihydro-2H-pyrido[1,2-a]pyrazin-7-yl]methanesulfonamide] it is under 10 nM.
The figure for `O=c1c(-c2ccccn2)cn2ccn(Cc3ccc(F)cc3)c(=O)c2c1O` [Example 306, 2-(4-fluorobenzyl)-9-hydroxy-7-(pyridin-2-yl)-2H-pyrido[1,2-a]pyrazine-1,8-dione trifluoroacetate] is 10 to 100 nM.
